ChEMBL document CHEMBL1201862, “PubChem BioAssay data set” (2004)
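Protocol summary: plate cells (96-well), add compound at 5 concentrations, incubate 48 h, interpolate endpoints linearly. GI50 is the concentration that inhibits growth by half.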 The source made the active and inactive calls. No stated cut-off is given here; in the data, active = GI50 up to about 1.1 µM and inactive = higher.

How the values were obtained:
Experiment in all cases: NCI-60 cell line screen, 48 h
MDA-MB-435 = test system: MDA-MB-435
SNB-75 = test system: SNB-75
NCI-H460 = test system: NCI-H460
SK-OV-3 = test system: SK-OV-3
LOX IMVI = test system: LOX IMVI
U-251 = test system: U-251
SK-MEL-5 = test system: SK-MEL-5
SW-620 = test system: SW-620
PC-3 = test system: PC-3
K562 = test system: K562
Hs-578T = test system: Hs-578T
DU-145 = test system: DU-145
OVCAR-4 = test system: OVCAR-4
UACC-257 = test system: UACC-257
NCI/ADR-RES = test system: NCI/ADR-RES
COLO 205 = test system: COLO 205
SN12C = test system: SN12C
SF-539 = test system: SF-539
M14 = test system: M14
TK-10 = test system: TK-10

Measured: GI50

O=C(C1OC1c1ccc(Cl)cc1)C12CC3CC(CC(C3)C1)C2 (stereo not given)
inactive: MDA-MB-435 14.3 µM | SNB-75 32.8 µM | NCI-H460 14.9 µM | SK-OV-3 31 µM | LOX IMVI 4.02 µM | U-251 15.4 µM | SK-MEL-5 14.5 µM | SW-620 20.3 µM | PC-3 29 µM | K562 25.1 µM | Hs-578T 28.4 µM | DU-145 29.1 µM | OVCAR-4 15.4 µM | UACC-257 21.6 µM | NCI/ADR-RES 22.9 µM | COLO 205 19.5 µM | SN12C 14.7 µM | SF-539 17.3 µM | M14 17.8 µM | TK-10 26.7 µM

COC(=O)c1cc2c3c(c1)Oc1cc(C(=O)OC)cc4c1C3c1c(cc(C(=O)OC)cc1O4)O2
inactive: MDA-MB-435 9.68 µM | SNB-75 5.81 µM | NCI-H460 23.8 µM | SK-OV-3 16.6 µM | LOX IMVI 5.92 µM | U-251 12.3 µM | SK-MEL-5 2.92 µM | SW-620 35 µM | PC-3 10.4 µM | K562 11.5 µM | Hs-578T 15.3 µM | DU-145 5.14 µM | OVCAR-4 34 µM | UACC-257 27.4 µM | COLO 205 23.7 µM | SN12C 32.7 µM | SF-539 15.1 µM | M14 26.6 µM | TK-10 15.3 µM
active: NCI/ADR-RES 0.163 µM

CCCCCCCCNC(=O)C1=C(C)NC(C)=C(C(=O)NCCCCCCCC)C1
inactive: MDA-MB-435 44.8 µM | SNB-75 23.2 µM | NCI-H460 > 100 µM | SK-OV-3 > 100 µM | LOX IMVI > 100 µM | U-251 94.4 µM | SK-MEL-5 > 100 µM | SW-620 > 100 µM | PC-3 80 µM | K562 > 100 µM | Hs-578T > 100 µM | DU-145 > 100 µM | OVCAR-4 > 100 µM | UACC-257 > 100 µM | NCI/ADR-RES > 100 µM | COLO 205 > 100 µM | SN12C > 100 µM | SF-539 > 100 µM | M14 > 100 µM | TK-10 > 100 µM

CCN(C(=O)N[C@H](C(=O)N[C@@H](C)C(=O)OC)C(C)C)c1ccccc1
inactive: MDA-MB-435 21.2 µM | SNB-75 32.1 µM | NCI-H460 24 µM | SK-OV-3 > 100 µM | LOX IMVI > 100 µM | U-251 28.9 µM | SK-MEL-5 36.8 µM | SW-620 39.2 µM | PC-3 39.1 µM | K562 24 µM | Hs-578T 32.9 µM | DU-145 > 100 µM | OVCAR-4 65 µM | UACC-257 20 µM | NCI/ADR-RES > 100 µM | COLO 205 20 µM | SN12C 33 µM | SF-539 19.2 µM | M14 31 µM | TK-10 35.7 µM

c1ccc2c(c1)CN1CCCC1CN2 (stereo not given)
inactive: MDA-MB-435 > 100 µM | SNB-75 > 100 µM | NCI-H460 > 100 µM | SK-OV-3 > 100 µM | LOX IMVI > 100 µM | U-251 > 100 µM | SK-MEL-5 > 100 µM | SW-620 > 100 µM | PC-3 > 100 µM | K562 > 100 µM | Hs-578T > 100 µM | DU-145 > 100 µM | OVCAR-4 > 100 µM | UACC-257 > 100 µM | NCI/ADR-RES > 100 µM | COLO 205 > 100 µM | SN12C > 100 µM | SF-539 > 100 µM | M14 > 100 µM | TK-10 > 100 µM

CCc1nc(N)nc(N)c1-c1ccc2nn(-c3ccccc3)[n+]([O-])c2c1
active: NCI-H460 0.361 µM | LOX IMVI 1.01 µM | SW-620 0.869 µM | K562 0.203 µM
inactive: MDA-MB-435 1.27 µM | SNB-75 21.3 µM | SK-OV-3 39.1 µM | U-251 2.58 µM | SK-MEL-5 2.61 µM | PC-3 1.23 µM | Hs-578T 17.9 µM | DU-145 6.14 µM | OVCAR-4 11.9 µM | UACC-257 10.6 µM | NCI/ADR-RES 3.13 µM | COLO 205 8.22 µM | SN12C 9.38 µM | SF-539 3.7 µM | M14 1.33 µM | TK-10 15 µM

O=P1(N(CCCl)CCCl)Oc2ccc(Cl)cc2Sc2c(ccc(Cl)c2Cl)O1 (stereo not given)
inactive: MDA-MB-435 7.1 µM | SNB-75 18.8 µM | NCI-H460 4.79 µM | SK-OV-3 21.9 µM | LOX IMVI 14.6 µM | U-251 6.76 µM | SK-MEL-5 5.02 µM | SW-620 6.68 µM | PC-3 3.28 µM | K562 3.47 µM | Hs-578T 2.13 µM | DU-145 63.7 µM | OVCAR-4 23.9 µM | UACC-257 10.4 µM | NCI/ADR-RES 6.04 µM | COLO 205 8.18 µM | SN12C 11.9 µM | SF-539 23.3 µM | M14 17.8 µM | TK-10 9.18 µM
